The results in this text go back to patent publication US12162861B2, “Dopamine D3 receptor selective antagonists/partial agonists; method of making; and use thereof” (THE UNITED STATES OF AMERICA, AS REPRESENTED BY THE …, priority 2016, dated 2024).

One series has as its target cannabinoid CB2 receptor (Homo sapiens, UniProt P34972). In words: Binding to cannabinoid CB2 receptor.
For the next series, the target named is opiate kappa receptor (Homo sapiens, UniProt P41145). Description: Binding to opiate kappa receptor.
Sequence of opiate kappa receptor (P41145 whole entry): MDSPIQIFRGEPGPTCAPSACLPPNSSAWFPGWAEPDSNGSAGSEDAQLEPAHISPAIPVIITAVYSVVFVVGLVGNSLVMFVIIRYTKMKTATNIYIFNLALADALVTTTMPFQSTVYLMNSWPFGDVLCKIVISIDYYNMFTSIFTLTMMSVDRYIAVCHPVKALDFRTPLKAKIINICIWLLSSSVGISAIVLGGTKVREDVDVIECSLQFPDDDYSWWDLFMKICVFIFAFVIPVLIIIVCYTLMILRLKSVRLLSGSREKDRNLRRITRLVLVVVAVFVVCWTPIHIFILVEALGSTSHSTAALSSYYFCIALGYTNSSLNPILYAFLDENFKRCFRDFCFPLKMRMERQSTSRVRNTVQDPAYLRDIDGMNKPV
Series [1] can be described thus: Mouse microsomal stability assay. The series is classed as in vitro ADME. Conditions: mouse liver microsomes, Phase I, 10 μM compound, 0.5 mg/mL microsomes. On the procedure:
Mouse Microsomal Stability Assay. […] The reaction was carried out with 100 mM potassium phosphate buffer, pH 7.4, in the presence of NADPH regenerating system, (compound final concentration was 10 μM; 0.5 mg/mL microsomes). Positive controls for phase I metabolism (testosterone) were also evaluated. Compound disappearance was monitored over time using a liquid chromatography and tandem mass spectrometry (LC/MS/MS) method. All reactions were sampled in triplicate. Chromatographic analysis was performed using an Accela ultra high-performance system consisting of an analytical pump and an autosampler coupled with a TSQ Vantage mass spectrometer (Thermo Fisher Scientific Inc., Waltham, MA). […] The mobile phase used was composed of 0.1% formic acid in acetonitrile and 0.1% formic acid in H2O with gradient elution, starting with 10% (organic) linearly increasing to 99% up to 2 min, maintaining at 99% (2-2.5 min) and reequilibrating to 10% by 2.7 min. The total run time for each analyte was 4.5 min.
For orientation: Liver microsomes are a subcellular fraction often used to study metabolism.

In series [2] the test system is rats. Description: Thermal response (hot plate) in rats. The series is classed as in vivo, rat. As to conditions: hot plate 52 °C, FIG. 13. How it is done:
Methods: Compound (±)-29 was administered 15 minutes before saline or oxycodone challenge. Tests were performed after the rat was placed inside a transparent circular cage on a hot plate (52±0.2° C.). Licking the hind paw or jumping was considered as a sign of thermal nociception. The rat was then immediately removed from the hot plate and the time latency was recorded.

The nature of series [3]: Phase I metabolic stability in rat liver microsomes. The series is classed as in vitro ADME. Conditions: FIG. 2; 10 μM, 0.5 mg/mL microsomes. On the procedure: Methods: Phase I metabolic stability assay was conducted in rat and rhesus monkey liver microsomes. For phase I metabolism, the reaction was carried out with 100 mM potassium phosphate buffer, pH 7.4, in the presence of NADPH regenerating system (1.3 mM NADPH, 3.3 mM glucose 6-phosphate, 3.3 mM MgCl2, 0.4 U/mL glucose-6-phosphate dehydrogenase, 50 μM sodium citrate). Reactions in triplicate were initiated by addition of the liver microsomes to the incubation mixture (compound final concentration was 10 μM; 0.5 mg/mL microsomes). Negative controls in the absence of cofactors were carried out to determine the specific cofactor-free degradation. Compound disappearance was monitored via LC/MS/MS. Chromatographic analysis was performed using an Accela™ ultra high-performance system consisting of an analytical pump, and an autosampler coupled with TSQ Vantage mass spectrometer (Thermo Fisher Scientific Inc., Waltham MA). […] The mobile phase used was composed of 0.1% Formic Acid in Acetonitrile and 0.1% Formic Acid in H2O with gradient elution, starting with 10% (organic) linearly increasing to 99% up to 2 min, maintaining at 99% (2-2.5 min) and re-equilibrating to 10% by 2.7 min. The total run time for each analyte was 5.0 min.

Series [4] concerns rats. In words: Naloxone-precipitated conditioned place aversion in chronic oxycodone treated rats. The series is classed as in vivo, rat. Conditions: chronic oxycodone-treated rats, 5, 15 mg/kg, 1 hour prior to naloxone, FIG. 6. The text has this: The place-conditioning apparatus (Med Associates, St Albans, VT) consisted of two compartments (21×28 cm^2) linked by a gray connecting area (21×12.5 cm^2); a sliding door separated each compartment from the connecting area. The two end compartments differed in wall color (black vs white), floor type (grid vs net), and illumination; preference for the end compartments was balanced by using weaker illumination in the reflective (and normally less-preferred) white compartment and stronger illumination in the non-reflective black compartment. The paradigm was further ‘balanced’ by associating the training injections with the white side in half the animals and with the black side in the remaining animals.
The CPA procedures in this study were similar to those described by others (Azar et al., 2003; Olmstead and Burns 2005; 2012). Briefly, one day before drug treatments started, rats (200-250 g) were randomly divided into 6 groups and were allowed to explore their assigned conditioning apparatus for 15 min (preconditioning). […] CPA score was calculated as animals' time spent in drug-paired minus saline-paired compartments, Oxycodone HCl and naloxone HCl were purchased from Sigma Chemical Co. (Saint Louis, MO, USA) and were dissolved in physiological saline.

“Also recorded” adds a separate entry of the source.

Sequence of cannabinoid CB2 receptor (P34972 whole entry): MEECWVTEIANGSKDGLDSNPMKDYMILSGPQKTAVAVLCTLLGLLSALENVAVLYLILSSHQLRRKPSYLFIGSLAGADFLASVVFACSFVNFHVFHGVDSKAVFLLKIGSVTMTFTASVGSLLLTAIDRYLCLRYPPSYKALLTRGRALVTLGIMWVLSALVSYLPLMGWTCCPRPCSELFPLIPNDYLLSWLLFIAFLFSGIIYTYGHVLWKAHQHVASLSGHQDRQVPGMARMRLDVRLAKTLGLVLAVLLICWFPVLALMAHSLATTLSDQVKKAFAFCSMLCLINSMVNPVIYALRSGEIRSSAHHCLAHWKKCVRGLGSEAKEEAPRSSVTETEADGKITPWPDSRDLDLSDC

As to `CCc1cc(Cl)c(OC)c(N2CCN(CC(O)CCNC(=O)c3cc4ccccc4[nH]3)CC2)c1` (racemic) [Compound 29, N-(4-(4-(3-chloro-5-ethyl-2-methoxyphenyl)piperazin-1-yl)-3-hydroxybutyl)-1H-indole-2-carboxamide], at cannabinoid CB2 receptor, the “binding to cannabinoid CB2 receptor” value is “does not bind”. In addition, the “binding to opiate kappa receptor” value at opiate kappa receptor is reported as “does not bind”. In series [1], the “% remaining over 1 h” value is listed as over 80%. The “thermal response after oxycodone challenge (oxycodone induced analgesia)” value in the series on rats [2] (30 minutes following oxycodone 2 mg/kg i.p.) was “no significant effects on animal's thermal response; also recorded: no effect on oxycodone induced analgesia”. Further, the “thermal response after saline challenge (analgesic effect of its own)” value in the series with rats [2] (30 minutes following saline 1 ml/kg i.p.) was “no significant effects on animal's thermal response; also recorded: no analgesic effects of its own”. Moreover, the “metabolic stability in rat liver microsomes versus PG648” value in series [3] is listed as “improved metabolic stability as compared to Compound 1; also recorded: significantly more stable than PG648”. Further, the “naloxone-precipitated conditioned place aversion” value in the series on rats [4] is “inhibits naloxone-precipitated conditioned place aversion; also recorded: significantly attenuated naloxone-precipitated conditioned place aversion”; in the series on rats [4] (listed as (±)-29) it was “inhibition of naloxone-precipitated conditioned place aversion”.
